Calls of active or inactive are those of the source. No rule for the calls is given here.
Experiment: blockers of an Epstein-Barr virus protein-peptide interaction – biochemical, fluorescence polarization, dose response (AID 1419)
Conditions: cell-free protein-peptide binding, 2 h; for fold change: measured here: P channel fold over control, at 54 µM

## CCCCCn1c(N)c(-c2nc3ccccc3o2)c2c([N+](=O)[O-])nn(C)c(=O)c21
  IC50: 48.1 µM (inactive)
  fold change: 0.443

## Cc1ccc(/C=c2\sc3nc(-c4cccnc4)nn3c2=O)cc1
  IC50: > 54 µM (inactive)
  fold change: 1.13

## CC(=O)Oc1ccc(C(=O)Nc2cccc(C(=O)c3cccc(NC(=O)c4ccc(OC(C)=O)cc4)c3)c2)cc1
  IC50: > 54 µM (inactive)
  fold change: 0.997

## Cc1cc[n+](-c2[nH]c(=O)sc2/C=N/NC([S-])=Nc2ccccc2)cc1C
  IC50: > 54 µM (inactive)
  fold change: 1.95

## O=C(N=Nc1c(O)[nH]c2ccc([N+](=O)[O-])cc12)c1cc(-c2ccccc2Cl)nc2ccccc12
  IC50: 4.56 µM
  fold change: 1.03

## CCN(CC)c1ccc(C=C2C(=O)OC(c3ccccc3)OC2=O)cc1 (stereo not given)
  IC50: 14.6 µM
  fold change: 10.8

## O=c1oc2ccccc2cc1-c1nc(-c2cccs2)cs1
  IC50: 2.96 µM
  fold change: 25.8

## Cc1nn(-c2ccccc2)c2c1C(c1ccccc1)C(C#N)=C(N)O2 (stereo not given)
  IC50: > 54 µM (inactive)
  fold change: 1.01

## CCc1ccc[n+](-c2[nH]c(=O)sc2/C=N/NC([S-])=Nc2ccccc2)c1
  IC50: 22.1 µM
  fold change: 2.13

## O=C(N/N=C/c1ccc(Cl)cc1)c1nc2ccc([N+](=O)[O-])cc2c(=O)[nH]1
  IC50: > 54 µM (inactive)
  fold change: 1.04

## COc1ccc(-c2cc(C(F)(F)F)c3c(n2)sc2c(O)cc(=O)[nH]c23)c(OC)c1
  IC50: 3.77 µM
  fold change: 3.12

## Cc1cccn2c(=O)c3cc(C(=O)NCc4ccco4)c(=N)n(CCOCCO)c3nc12
  IC50: 3.61 µM
  fold change: 3.76

## CCOc1cc(-c2ccc(N)c(OCC)c2)ccc1N
  IC50: 1.52 µM
  fold change: 5.61

## CCO[C@H]1OC(C(=O)N2CCCCCCC2)=C[C@@H](c2ccc(C(F)(F)F)cc2)[C@@H]1CCCO
  IC50: > 54 µM (inactive)
  fold change: 0.95

## Cc1cc2nc3c(=O)[nH]c(=O)[nH]c3nc2c([N+](=O)[O-])c1N
  IC50: < 0.42 µM
  fold change: 67

## O=C1c2cccc3c(N4CCCCC4)ccc(c23)C(=O)N1c1ccccn1
  IC50: < 0.42 µM
  fold change: 11.5

## N#CC(c1nc2ccccc2nc1N1CCCC1)S(=O)(=O)c1ccccc1 (stereo not given)
  IC50: > 54 µM (inactive)
  fold change: 1.79

## O=c1c(/C=N/Nc2ccccc2)c(Sc2nnnn2-c2ccccc2)nc2ccccn12
  IC50: 4.73 µM
  fold change: 37.5

## COc1cc(C2CC(C(F)(F)F)n3ncc(C(=O)O)c3N2)cc(OC)c1OC (stereo not given)
  IC50: > 54 µM (inactive)
  fold change: 0.997

## COc1ccc(N=Cc2c(O)n(Cc3ccccc3)c(=S)[nH]c2=O)c(OC)c1
  IC50: > 54 µM (inactive)
  fold change: 3.88

## N#CC1=C(N)C(C#N)(C#N)C(c2cccnc2)C2CCCC=C12 (stereo not given)
  IC50: 4.81 µM
  fold change: 2.44

## OCCCc1nc2n(n1)C(c1cccs1)C=C(c1ccccc1)N2 (stereo not given)
  IC50: < 0.42 µM
  fold change: 43.2

## Cc1[nH]c(=O)[nH]c(=O)c1S(=O)(=O)N1CCN(c2ccccc2F)CC1
  IC50: > 54 µM (inactive)
  fold change: 1.04

## O=C1CCCC2=C1Sc1ccccc1N2
  IC50: 5.07 µM
  fold change: 1.99

## C=CCn1c(CSc2nc3ccccc3s2)nnc1SCC(=O)NCc1ccco1
  IC50: > 54 µM (inactive)
  fold change: 0.923

## O=C(Nc1ccccc1F)C(=Cc1sc(N2CCOCC2)nc1-c1ccccc1)C(=O)Nc1ccccc1F
  IC50: 5.71 µM
  fold change: 7.63

## OCCCc1nc2n(n1)C(c1cccs1)C=C(c1ccc(Br)cc1)N2 (stereo not given)
  IC50: < 0.42 µM
  fold change: 37.6

## N#CC1=C(N)OC2=C(CC/C2=C\c2ccc(F)cc2)C1c1ccc(F)cc1 (stereo not given)
  IC50: 20 µM
  fold change: 3.48

## COc1ccc(C(=O)Nc2cccc(-c3cc4ccccc4oc3=O)c2)cc1[N+](=O)[O-]
  IC50: > 54 µM (inactive)
  fold change: 0.607

## COc1ccc(/C=C2\SC(=S)N(CCCC(=O)Nc3ccccn3)C2=O)cc1OC
  IC50: 8.78 µM
  fold change: 9.33

## Cc1cc(N2CCCC2)ccc1C=C(C#N)C#N
  IC50: 1.86 µM
  fold change: 15.3

## O=C1Nc2cc(Cl)cnc2N2CCCC12 (stereo not given)
  IC50: > 54 µM (inactive)
  fold change: 1.68

## COc1ccc(Cc2nnc(NC(=O)Cc3cccs3)s2)cc1
  IC50: > 54 µM (inactive)
  fold change: 1.04

## COC(=O)[C@@]1(C#N)[C@@H]2C=CC(C(C)=O)=CN2[C@@H](C(N)=O)[C@@H]1c1ccc(F)cc1
  IC50: 1.05 µM
  fold change: 10.2

## COc1ccc(OC)c(C2C3CN(C(C)C)CC=C3C(C#N)=C(N)C2(C#N)C#N)c1 (stereo not given)
  IC50: 5.91 µM
  fold change: 3.96

## COc1ccc(N=C2NC(=O)S/C2=C\c2ccc(N(C)C)cc2)cc1
  IC50: 4.75 µM
  fold change: 3.03

## CSc1nc(N(C)CCO)c2sc3nc(-c4ccco4)c4c(c3c2n1)CCC4
  IC50: > 54 µM (inactive)
  fold change: 1.04

## COc1ccccc1NC(=O)/C(C#N)=C/c1cc([N+](=O)[O-])ccc1N1CCCC1
  IC50: 4.7 µM
  fold change: 60.1

## Cc1nnc(N2C(=O)C(O)=C(C(=O)c3ccco3)C2c2ccc(F)cc2)s1 (stereo not given)
  IC50: 10.4 µM
  fold change: 2.42

## c1ccc(-c2[nH]c(-c3ccccc3)[n+](CC3CO3)c2-c2ccccc2)cc1 (stereo not given)
  IC50: > 54 µM (inactive)
  fold change: 0.99

## COc1ccc(NC(=O)c2sc3nc(-c4cccnc4)ccc3c2N)cc1
  IC50: 2.44 µM
  fold change: 6.91

## N#C/C(=C\C1=C(N2CCOCC2)C(=C\c2ccc(Cl)cc2)/CC1)C(=O)Nc1ccccc1F
  IC50: 3.43 µM
  fold change: 4.49

## CN(C)c1cccc(C(=O)OCc2cc(=O)oc3cc(O)ccc23)c1
  IC50: > 54 µM (inactive)
  fold change: 1.01

## CCOc1ccc(N=C2NC(=O)S/C2=C\c2ccc(N(C)C)cc2)cc1
  IC50: 5.8 µM
  fold change: 8.81

## N#CC1=C(N)Oc2ccc3ccc(O)cc3c2C1c1ccsc1 (stereo not given)
  IC50: 1.97 µM
  fold change: 2.08

## Cc1ccc(N2C(=O)c3cccc4c(N5CCN(C)CC5)ccc(c34)C2=O)c2cccnc12
  IC50: < 0.42 µM
  fold change: 31.9

## COc1ccc(-c2csc(NC(=O)CSc3nc(C)nc4sc(C(=O)O)c(C)c34)n2)cc1
  IC50: > 54 µM (inactive)
  fold change: 0.987

## O=C(CSc1nc(-c2ccc(F)cc2)nc2c1Cc1ccccc1O2)Nc1ccc(C(=O)O)cc1
  IC50: 2.9 µM
  fold change: 1.11

## Nc1cc(C(=O)O)c(N)c2c1C(=O)c1ccccc1C2=O
  IC50: < 0.42 µM
  fold change: 4.83

## COc1ccc2nc(N3CCC(C)CC3)c(C#N)cc2c1
  IC50: 9.17 µM
  fold change: 1.94

## COC(=O)CCCC1=CC2=CC(=O)C(C)(OC(=O)c3cccs3)C(=O)C2=CN1c1cccc(C#N)c1 (stereo not given)
  IC50: > 54 µM (inactive)
  fold change: 1.49

## COc1ccc(/C=C2\SC(=O)N(CC(=O)NNC(=O)c3ccccc3O)C2=O)cc1
  IC50: > 54 µM (inactive)
  fold change: 1.01

## O=C1c2cccc3c([N+](=O)[O-])ccc(c23)C(=O)N1Cc1cccnc1
  IC50: > 54 µM (inactive)
  fold change: 5.08

## CNc1cccc2c1C(=O)c1ccccc1C2=O
  IC50: 2.8 µM
  fold change: 2.44

## O=C(CSc1ccsc1[N+](=O)[O-])Nc1cc(F)ccc1F
  IC50: > 54 µM (inactive)
  fold change: 1.05

## CCCCN1C(=O)/C(=C/C=C2\Oc3ccccc3N2CC)SC1=S
  IC50: 5.36 µM
  fold change: 13.9

## O=c1ccc2[n+]([O-])c3ccc(O)cc3oc-2c1
  IC50: 1.34 µM
  fold change: 5.06

## Cc1cc2nc3c(=O)n(CCc4ccccc4)c(=O)[nH]c3nc2cc1N
  IC50: < 0.42 µM
  fold change: 115

## O=C(c1ccccc1)c1ccc2c(c1)OCCCO2
  IC50: > 54 µM (inactive)
  fold change: 1.02

## N#C/C(=C\c1sc(N2CCOCC2)nc1-c1ccccc1)C(=O)Nc1cccc2ccccc12
  IC50: 30.8 µM (inactive)
  fold change: 3.26

## O=C(O)c1ccccc1/C=N/NC(=O)c1cc(-c2ccco2)nc2ccccc12
  IC50: 30.4 µM (inactive)
  fold change: 1.03

## CCc1ccc2nc3sc(C(=O)N4CCc5ccccc54)c(N)c3cc2c1
  IC50: < 0.42 µM
  fold change: 16.6

## COc1ccc(C(=O)c2sc3nc(C)cc(-c4cccs4)c3c2N)cc1
  IC50: 10.9 µM
  fold change: 10.2

## O=[N+]([O-])c1ccc(/C=N/n2c(CO)nc3ccccc32)s1
  IC50: 22.7 µM
  fold change: 6.56

## COc1ccc(OC)c2c1C(=O)c1ccccc1C2=O
  IC50: < 0.42 µM
  fold change: 41.6

## CSC1=N/C(=C\c2ccccc2F)C(=O)S1
  IC50: > 54 µM (inactive)
  fold change: 1.05

## C=CCn1c(O)c(N=Nc2ccccc2C)c2ccccc21
  IC50: 14.9 µM
  fold change: 12.4

## Nc1c(O)ccc2c1C(=O)c1ccccc1C2=O
  IC50: 4.09 µM
  fold change: 2.59

## COCCCNC(=O)c1ccc2c3c(onc13)-c1ccccc1C2=O
  IC50: < 0.42 µM
  fold change: 217

## O=C(O)COc1ccc(-c2nccc(-c3cccs3)n2)cc1
  IC50: > 54 µM (inactive)
  fold change: 1.03

## Oc1ccc2ccccc2c1N=Nc1ccc(F)cc1
  IC50: > 54 µM (inactive)
  fold change: 1.24

## CC(C)CSC1=NSC2=NC(=O)/C(=C\c3coc4ccccc4c3=O)C(=N)N12
  IC50: > 54 µM (inactive)
  fold change: 33

## CN1C[C@H](CO)C=C2c3cccc4[nH]cc(c34)C[C@H]21
  IC50: 12.4 µM
  fold change: 1.62

## O=c1[nH]c(=O)n(Cc2ccccc2Cl)c(O)c1/C=C1/C=CC=N1
  IC50: > 54 µM (inactive)
  fold change: 1.75

## Cc1ccc2nc(SCC(=O)Nc3ccccc3N3CCOCC3)c(C#N)cc2c1
  IC50: > 54 µM (inactive)
  fold change: 1.02

## CCCCOC(=O)Cn1c2ccc(OC)cc2c2nc3ccccc3nc21
  IC50: 4.54 µM
  fold change: 5.84

## COC(=O)c1cc(N2CCN(C)CC2)nc2ccccc12
  IC50: 32.8 µM (inactive)
  fold change: 1.52

## O=C1Nc2ccc(Cl)cc2C12Nc1ccccc1-c1nnc(SCc3ccccc3F)nc1O2 (stereo not given)
  IC50: 3.05 µM
  fold change: 14.3

## CCOC(=O)CC(=O)CSc1nc(-c2cccnc2)ccc1C#N
  IC50: > 54 µM (inactive)
  fold change: 1.63

## COc1cc(N2CCCC2)c(OC)cc1/C=C(/C#N)c1ccc(F)cc1
  IC50: 9.59 µM
  fold change: 10.8

From PubChem BioAssay AID1419 (Emory University Molecular Libraries Screening Center, 2008)
